Key:
[1] = Oral PK and PK modeling of KAE609 in NMRI mice; type: in vivo, female NMRI mice; conditions: for AUC(0-inf) / Cmax: NMRI, 5.3 mg/kg, single oral dose 5.3 mg/kg
Experimental: For the in vivo PK studies, female NMRI mice (specific pathogen free) were obtained from Janvier, Le Genest-Saint-Isle, France. To investigate the influence of the disease status on the pharmacokinetics, a single oral dose (5.3 mg/kg) of KAE609 was given to both the infected and uninfected NMRI mice, and the PK parameters were determined. The infected mice were dosed at 24 h postinfection. The formulation, sampling times (0.25, 0.5, 1, 2, 4, 8, 24, and 48 h postdose), extraction, and analysis were similar to those in the method described above.
Population PK modeling of the concentration-time data of KAE609 in mice was performed using naive pooling without intersubject variability using NONMEM version VI 2.0. A two-compartment pharmacokinetic model with first-order absorption and nonlinear elimination was built to fit the concentration-time data of KAE609 generated in (infected and healthy) NMRI mice at 5.3 mg/kg. In the model, clearance (CL) was described by equation 2, where Cp is compound plasma concentration, the maximum metabolic rate (Vmax)/Km ratio is the maximal clearance achievable when Cp is ≪Km, and Km corresponds to the compound concentration at which the clearance reached 50% of the Vmax/Km. The primary model parameters derived were plasma clearance (CL) (in liters/h/kg), intercompartmental clearance (Q) (in liters/h/kg), central and peripheral volume of distribution (Vc and Vp, respectively) (in liters/kg), and the absorption rate constant (Ka) (in h^−1). The diagnostic plots were analyzed for closeness to and randomness along the line of identity on the observed versus predicted concentration plot, as well as randomness along the weighted residual zero line on the predicted concentration or time. […] Based on the estimated primary model parameters (Vmax, Km, Vc, Vp, Q, and Ka), the plasma concentration-time profiles and secondary pharmacokinetic parameters, such as Cmax, AUC at different doses, and dosing regimens, were simulated using the Berkeley Madonna software (version 8.0.1) (Berkeley Madonna, University of California, Berkeley, CA. 2 CL=Vmax/(Km+Cp)

[2] = system: P. vivax and P. falciparum; conditions: cited from earlier work
P. berghei = test: Dose fractionation and PK-PD analysis of KAE609 in the P. berghei malaria mouse model; type: in vivo, NMRI mice; conditions: for Parasitemia (mean ± SD): 48 h posttreatment; for %T>TRE: simulated, 48-h period
Experimental: The total daily doses were either administered as a single dose (24 h postinfection) or divided into two oral doses (BID) or three oral doses (TID) per day (Table 1). Four mice were used for each regimen, with the control mice receiving vehicle only. Parasitemia, expressed as parasitized red blood cells (pRBCs) of >100 RBCs, was determined at 72 h postinfection (48 h after the initiation of treatment with KAE609) using standard flow cytometry techniques ([39]).
The concentration of compounds that inhibited 99% of P. berghei growth (IC99) was used to calculate the threshold (TRE = 2 × IC99) and the PK-PD indices. […] The Cmax/TRE, AUC0–48/TRE, and %T>TRE at different doses and dosing regimens were calculated using the Berkeley Madonna Software (version 8.0.1) (Berkeley Madonna, University of California, Berkeley, Berkeley, CA).
The relationship between PK-PD indices (log-transformed Cmax/TRE, log-transformed AUC0–48/TRE, and %T>TRE) and log-transformed parasitemia was analyzed by nonlinear regression analysis. An exploratory analysis of the PK-PD data was done using various models, such as maximum effect (Emax), sigmoid Emax, and with and without slope. A sigmoidal dose-response (variable-slope) model without constants was fitted to the data. GraphPad Prism version 5.02 for Windows (GraphPad Software, San Diego, CA, USA) was the software used for this analysis. The model choice was guided initially by a visual inspection of the y-by-x plots and then by correlation analysis and by evaluating the standard error of the estimate. The parasitemia (P) measures at any value of each different PK-PD index are expressed in equation 1, where EZ50 (otherwise referred to as EC50) is the value of the specific PK-PD index (Cmax/TRE, AUC0–48/TRE, and %T>TRE, respectively) required to produce 50% of the maximal effect, x is any of the PK-PD indices, and Pmax, Pmin, and s are as described previously. The values of x corresponding to the maximum reduction in parasitemia were derived by interpolation based on equation 1.

[3] = system: P. berghei GFP ANKA malaria strain PbGFPCON; parameters: method as in PMID 20813948; conditions: cited from earlier work
[4] = female, mouse, plasma, po, infected NMRI mice
[5] = female, mouse, plasma, po, uninfected NMRI mice
[6] = two-compartment model, NMRI mice 5.3 mg/kg p.o.
[7] = patients, 30 mg daily for 3 days
[8] = interpolated from PK-PD model, 48 h observation
[9] = total dose 0.5 mg/kg p.o. as 1 x 0.5 mg/kg
[10] = total dose 0.5 mg/kg p.o. as 2 x 0.25 mg/kg (every 12 h)
[11] = total dose 0.5 mg/kg p.o. as 3 x 0.17 mg/kg (every 8 h)
[12] = total dose 1 mg/kg p.o. as 1 x 1 mg/kg
[13] = total dose 1 mg/kg p.o. as 2 x 0.5 mg/kg (every 12 h)
[14] = total dose 1 mg/kg p.o. as 3 x 0.33 mg/kg (every 8 h)
[15] = total dose 2 mg/kg p.o. as 1 x 2 mg/kg
[16] = total dose 2 mg/kg p.o. as 2 x 1 mg/kg (every 12 h)
[17] = total dose 2 mg/kg p.o. as 3 x 0.67 mg/kg (every 8 h)
[18] = total dose 4 mg/kg p.o. as 1 x 4 mg/kg
[19] = total dose 4 mg/kg p.o. as 2 x 2 mg/kg (every 12 h)
[20] = total dose 4 mg/kg p.o. as 3 x 1.33 mg/kg (every 8 h)
[21] = total dose 8 mg/kg p.o. as 1 x 8 mg/kg
[22] = total dose 8 mg/kg p.o. as 2 x 4 mg/kg (every 12 h)
[23] = total dose 8 mg/kg p.o. as 3 x 2.67 mg/kg (every 8 h)

## C[C@H]1Cc2c([nH]c3cc(Cl)c(F)cc23)[C@@]2(N1)C(=O)Nc1ccc(Cl)cc12 [(+)-7 (KAE609)]
[1]; comparable oral dose (5 mg/kg)
  Fold higher Cmax and exposure in NMRI mice than in CD-1 mice: 4 fold
[1]; [4]
  AUC(0-inf): 12600 ng·h/mL
  Cmax: 960 ng/mL
[1]; [5]
  AUC(0-inf): 13200 ng·h/mL
  Cmax: 1010 ng/mL
[1]; female, mouse, plasma, po, two-compartment model, nonlinear elimination, NMRI mice 5.3 mg/kg p.o.
  Km: 0.0341 µg/mL
[1]; oral 5.3 mg/kg
  Difference in PK profiles between infected and uninfected NMRI mice: No significant difference
[1]; [6]
  Ka (absorption rate constant): 1.78 h⁻¹
  Q (intercompartmental clearance): 10.2 mL/min/kg
  Vc (central volume of distribution): 4.4 L/kg
  Vp (peripheral volume of distribution): 5.1 L/kg
[1]; two-compartment model, nonlinear elimination, NMRI mice 5.3 mg/kg p.o.
  Vmax: 143 µg/h/kg
[2]; 3-day dosing regimen of 30 mg daily, P. vivax and P. falciparum malaria patients
  Clinical outcome: clearing parasitemia
[2]; [7]
  AUC (average of two cohorts): 14,300 ng · h/ml
  Cmax (average of two cohorts): 855 ng/mL
P. berghei; P. berghei malaria mouse model
  Type of killing suggested by PK-PD analysis: time-dependent rather than concentration-dependent killing
P. berghei; TRE = 48 ng/ml
  AUC for reduction in parasitemia in the P. berghei murine malaria model: 28,176 ng · h/ml
  Cmax for reduction in parasitemia in the P. berghei murine malaria model: 1,440 ng/ml
P. berghei; as derived from Cmax/TRE (Table 5)
  Cmax needed to reduce parasitemia by 50% in vivo: 260 ng/mL
P. berghei; [8]
  AUC0–48/TRE ratio likely to result in the maximum reduction in parasitemia: 587
  Cmax/TRE ratio likely to result in the maximum reduction in parasitemia: 30
  T>TRE likely to result in the maximum reduction in parasitemia: 100%
P. berghei; parasitemia vs %T>TRE
  Hill slope, value (95% CI), PK-PD model for %T>TRE: −0.031 (−0.037 to −0.024)
  Pmax, value (95% CI), PK-PD model for %T>TRE: 53.09 (32.28 to 87.50)
  Pmin, value (95% CI), PK-PD model for %T>TRE: 0.15 (0.12 to 0.20)
P. berghei; parasitemia vs AUC0–48/TRE
  Hill slope, value (95% CI), PK-PD model for AUC0–48/TRE: −1.63 (−2.04 to −1.22)
  Pmax, value (95% CI), PK-PD model for AUC0–48/TRE: 32.66 (25.06 to 42.56)
  Pmin, value (95% CI), PK-PD model for AUC0–48/TRE: 0.13 (0.09 to 0.20)
P. berghei; [9]
  Parasitemia (mean ± SD): 28.82 ± 4.49%
  %T>TRE: 4.3%
P. berghei; [10]
  Parasitemia (mean ± SD): 38.28 ± 2.95%
  %T>TRE: 0%
P. berghei; [11]
  Parasitemia (mean ± SD): 35.37 ± 5.32%
  %T>TRE: 0%
P. berghei; [12]
  Parasitemia (mean ± SD): 17.82 ± 3.05%
  %T>TRE: 10.7%
P. berghei; [13]
  Parasitemia (mean ± SD): 18.19 ± 6.81%
  %T>TRE: 8.8%
P. berghei; [14]
  Parasitemia (mean ± SD): 20.31 ± 5.71%
  %T>TRE: 0%
P. berghei; [15]
  Parasitemia (mean ± SD): 5.64 ± 1.69%
  %T>TRE: 23.0%
P. berghei; [16]
  Parasitemia (mean ± SD): 6.48 ± 3.94%
  %T>TRE: 22.7%
P. berghei; [17]
  Parasitemia (mean ± SD): 10.83 ± 4.67%
  %T>TRE: 22.3%
P. berghei; [18]
  Parasitemia (mean ± SD): 0.63 ± 0.57%
  %T>TRE: 54.5%
P. berghei; [19]
  Parasitemia (mean ± SD): 0.43 ± 0.38%
  %T>TRE: 56.1%
P. berghei; [20]
  Parasitemia (mean ± SD): 0.55 ± 0.28%
  %T>TRE: 57.3%
P. berghei; [21]
  Parasitemia (mean ± SD): 0.15 ± 0.03%
  %T>TRE: 99.9%
P. berghei; [22]
  Parasitemia (mean ± SD): 0.18 ± 0.04%
  %T>TRE: 99.8%
P. berghei; [23]
  Parasitemia (mean ± SD): 0.16 ± 0.02%
  %T>TRE: 99.8%
[3]; P. berghei malaria mouse model
  Single oral dose giving 50% reduction in parasitemia: 1.2 mg/kg
  Single oral dose giving 90% reduction in parasitemia: 2.7 mg/kg
  Single oral dose giving 99% reduction in parasitemia: 5.3 mg/kg
[3]; single dose of 30 mg/kg
  Cure rate: 50%
[3]; single oral dose of 100 mg/kg
  Animals cured: 100%
[3]; thrice-daily oral doses of 50 mg/kg
  Cure: complete cure

Source: PMC4335872, “Pharmacokinetic-Pharmacodynamic Analysis of Spiroindolone Analogs and KAE609 in a Murine Malaria Model” (Antimicrobial Agents and Chemotherapy, 2015)
